# Laboratory results: ChEMBL document CHEMBL5465560, “Selectivity Literature for EUbOPEN Chemogenomic Library” (2024)
# Experiments:
# [1] = target: T1, Serine/threonine-protein kinase Sgk1 (Homo sapiens) (UniProt O00141); experiment: Selectivity interaction (Kinase panel (literature)) EUB0001623a SGK1; details: at 1 µM
# T1 sequence (whole entry): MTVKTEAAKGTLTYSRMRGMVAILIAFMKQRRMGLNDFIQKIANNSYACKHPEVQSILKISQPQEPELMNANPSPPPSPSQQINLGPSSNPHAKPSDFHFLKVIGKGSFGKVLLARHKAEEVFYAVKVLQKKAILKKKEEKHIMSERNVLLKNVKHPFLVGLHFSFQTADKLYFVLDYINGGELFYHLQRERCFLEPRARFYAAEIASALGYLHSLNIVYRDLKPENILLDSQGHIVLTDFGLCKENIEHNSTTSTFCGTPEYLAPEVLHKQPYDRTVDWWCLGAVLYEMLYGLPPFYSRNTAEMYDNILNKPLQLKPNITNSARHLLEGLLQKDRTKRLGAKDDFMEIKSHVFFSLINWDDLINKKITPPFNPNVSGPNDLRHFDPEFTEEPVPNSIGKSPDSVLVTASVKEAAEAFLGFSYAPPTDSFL
# [2] = target: T2, Receptor-type tyrosine-protein kinase FLT3 (Homo sapiens, UniProt P36888); experiment: Selectivity interaction (Kinase panel (literature)) EUB0001623a FLT3
# T2 sequence (P36888 whole entry): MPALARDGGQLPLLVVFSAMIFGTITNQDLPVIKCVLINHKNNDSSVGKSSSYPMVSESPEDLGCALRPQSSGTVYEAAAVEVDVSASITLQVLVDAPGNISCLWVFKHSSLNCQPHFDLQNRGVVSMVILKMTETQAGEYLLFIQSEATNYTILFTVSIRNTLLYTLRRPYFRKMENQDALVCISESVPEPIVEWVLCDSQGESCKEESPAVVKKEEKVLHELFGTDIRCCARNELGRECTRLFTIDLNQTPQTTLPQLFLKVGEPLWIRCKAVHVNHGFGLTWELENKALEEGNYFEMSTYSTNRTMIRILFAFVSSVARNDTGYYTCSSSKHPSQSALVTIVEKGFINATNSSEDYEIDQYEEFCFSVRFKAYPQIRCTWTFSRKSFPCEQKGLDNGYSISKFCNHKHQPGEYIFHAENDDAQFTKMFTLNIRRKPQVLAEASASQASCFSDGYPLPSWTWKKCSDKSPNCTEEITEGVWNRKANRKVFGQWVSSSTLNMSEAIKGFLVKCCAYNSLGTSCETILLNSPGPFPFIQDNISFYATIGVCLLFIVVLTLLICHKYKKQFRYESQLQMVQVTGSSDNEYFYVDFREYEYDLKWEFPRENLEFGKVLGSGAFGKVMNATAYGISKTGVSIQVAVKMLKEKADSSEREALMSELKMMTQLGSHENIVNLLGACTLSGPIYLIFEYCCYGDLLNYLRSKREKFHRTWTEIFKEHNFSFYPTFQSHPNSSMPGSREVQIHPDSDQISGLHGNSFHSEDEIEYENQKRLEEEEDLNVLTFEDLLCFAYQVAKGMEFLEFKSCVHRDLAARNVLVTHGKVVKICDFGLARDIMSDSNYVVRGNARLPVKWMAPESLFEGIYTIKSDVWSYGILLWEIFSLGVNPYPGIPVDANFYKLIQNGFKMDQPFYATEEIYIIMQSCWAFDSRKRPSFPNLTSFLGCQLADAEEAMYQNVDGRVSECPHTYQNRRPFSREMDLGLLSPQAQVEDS
# [3] = target: Cyclin-dependent kinase 8 (Homo sapiens, UniProt P49336); experiment: Selectivity interaction (Reporter displacement assay) EUB0001623a CDK8
# D(2) dopamine receptor [4] = target: T3, D(2) dopamine receptor (Homo sapiens, UniProt P14416); experiment: (§1) Selectivity interaction (CEREP panel (binding assay, receptors and ion channels)) EUB0001623a DRD2
# T3 sequence (P14416 whole entry): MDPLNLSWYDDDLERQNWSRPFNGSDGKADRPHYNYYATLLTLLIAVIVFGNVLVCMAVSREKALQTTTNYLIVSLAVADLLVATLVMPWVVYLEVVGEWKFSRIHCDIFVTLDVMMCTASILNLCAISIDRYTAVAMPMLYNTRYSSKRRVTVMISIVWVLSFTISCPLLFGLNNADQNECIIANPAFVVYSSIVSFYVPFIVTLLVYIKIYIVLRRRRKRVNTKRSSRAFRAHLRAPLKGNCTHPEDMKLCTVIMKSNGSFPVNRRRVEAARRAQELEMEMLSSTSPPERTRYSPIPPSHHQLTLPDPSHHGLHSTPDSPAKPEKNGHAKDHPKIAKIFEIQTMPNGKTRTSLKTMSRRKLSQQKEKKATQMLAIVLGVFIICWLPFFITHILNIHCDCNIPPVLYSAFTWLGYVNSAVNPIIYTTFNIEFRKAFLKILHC
# [5] = target: Cyclin-dependent kinase 3 (Homo sapiens) (UniProt Q00526); details: at 1 µM
# Sequence of Cyclin-dependent kinase 3 (Homo sapiens) (Q00526 whole entry, looked up): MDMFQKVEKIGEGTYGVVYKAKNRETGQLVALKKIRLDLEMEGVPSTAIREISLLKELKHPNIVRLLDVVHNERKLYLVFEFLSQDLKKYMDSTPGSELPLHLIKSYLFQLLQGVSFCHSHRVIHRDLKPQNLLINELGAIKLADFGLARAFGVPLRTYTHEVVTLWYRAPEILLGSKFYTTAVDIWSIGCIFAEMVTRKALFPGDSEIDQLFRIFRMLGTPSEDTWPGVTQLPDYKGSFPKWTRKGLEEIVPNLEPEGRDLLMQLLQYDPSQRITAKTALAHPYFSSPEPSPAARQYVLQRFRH
# [6] = target: Cyclin-dependent kinase 5 (Homo sapiens, UniProt Q00535); experiment: (§2) Selectivity interaction (Kinase panel (literature)) EUB0001623a CDK5; details: at 1 µM
# [7] = target: CDK7/Cyclin H/MNAT1 (Homo sapiens) (UniProt P51946+P50613+P51948); experiment: Selectivity interaction (Kinase panel (literature)) EUB0001623a CDK7; type: protein-complex assay; details: at 1 µM
# D(2) dopamine receptor [8] = target: T3, D(2) dopamine receptor; experiment: as §1; details: at 1 µM
# [9] = target: Cyclin-dependent kinase 2/cyclin A (Homo sapiens) (UniProt P24941+P20248+P78396); experiment: Selectivity interaction (Kinase panel (literature)) EUB0001623a CDK2; type: protein-complex assay; details: at 1 µM
# [10] = target: CDK6/cyclin D3 (Homo sapiens) (UniProt P30281+Q00534); experiment: Selectivity interaction (Kinase panel (literature)) EUB0001623a CDK6; type: protein-complex assay; details: at 1 µM
# [11] = target: NT-3 growth factor receptor (Homo sapiens, UniProt Q16288); experiment: Selectivity interaction (Kinase panel (literature)) EUB0001623a NTRK3
# [12] = target: Adenosine receptor A1 (Homo sapiens) (UniProt P30542); experiment: Selectivity interaction (CEREP panel (binding assay, receptors and ion channels)) EUB0001623a ADORA1; details: at 1 µM
# Sequence of Adenosine receptor A1 (Homo sapiens) (P30542 whole entry): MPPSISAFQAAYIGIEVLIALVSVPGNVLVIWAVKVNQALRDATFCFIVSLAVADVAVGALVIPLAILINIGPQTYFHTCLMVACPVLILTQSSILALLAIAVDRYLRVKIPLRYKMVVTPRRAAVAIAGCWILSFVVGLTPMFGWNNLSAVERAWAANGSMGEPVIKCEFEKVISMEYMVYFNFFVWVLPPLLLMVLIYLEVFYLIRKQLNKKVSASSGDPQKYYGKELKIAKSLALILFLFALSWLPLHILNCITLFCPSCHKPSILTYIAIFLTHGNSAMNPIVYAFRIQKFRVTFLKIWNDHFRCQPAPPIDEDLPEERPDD
# [13] = target: Cyclin-dependent kinase 9 (Homo sapiens, UniProt P50750); experiment: Selectivity interaction (Reporter displacement assay) EUB0001623a CDK9
# Sequence of Cyclin-dependent kinase 9 (P50750 whole entry): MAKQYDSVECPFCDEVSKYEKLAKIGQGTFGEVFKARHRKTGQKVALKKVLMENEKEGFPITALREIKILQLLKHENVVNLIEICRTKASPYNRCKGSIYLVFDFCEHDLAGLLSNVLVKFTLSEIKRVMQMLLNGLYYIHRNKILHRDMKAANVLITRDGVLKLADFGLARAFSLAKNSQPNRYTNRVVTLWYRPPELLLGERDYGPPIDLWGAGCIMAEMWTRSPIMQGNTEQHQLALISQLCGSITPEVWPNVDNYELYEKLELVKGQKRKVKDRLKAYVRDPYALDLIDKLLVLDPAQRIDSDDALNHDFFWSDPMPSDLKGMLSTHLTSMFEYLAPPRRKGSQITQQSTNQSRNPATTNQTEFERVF
# [14] = target: Cyclin-dependent kinase 2/cyclin E (Homo sapiens) (UniProt P24864+P24941+O96020); details: at 1 µM
# [15] = target: CDK5/Cyclin D3 (Homo sapiens) (UniProt Q00535+P30281); experiment: as §2; type: protein-complex assay; details: at 1 µM
# [16] = target: Cyclin-dependent kinase 1/cyclin B (Homo sapiens) (UniProt P06493+P14635+Q8WWL7+O95067); experiment: Selectivity interaction (Kinase panel (literature)) EUB0001623a CDK1; type: protein-complex assay; details: at 1 µM
# [17] = target: CDK9/cyclin T1 (Homo sapiens) (UniProt O60563+P50750); experiment: Selectivity interaction (Kinase panel (literature)) EUB0001623a CDK9; type: protein-complex assay; details: at 1 µM
# [18] = target: Ribosomal protein S6 kinase beta-1 (Homo sapiens, UniProt P23443); experiment: Selectivity interaction (Kinase panel (literature)) EUB0001623a RPS6KB1; details: at 1 µM
# [19] = target: T4, Cyclin-dependent kinase 12 (Homo sapiens, UniProt Q9NYV4); experiment: Selectivity interaction (Radioactive kinase activity assay) EUB0001635a CDK12
# T4 sequence (Q9NYV4 whole entry): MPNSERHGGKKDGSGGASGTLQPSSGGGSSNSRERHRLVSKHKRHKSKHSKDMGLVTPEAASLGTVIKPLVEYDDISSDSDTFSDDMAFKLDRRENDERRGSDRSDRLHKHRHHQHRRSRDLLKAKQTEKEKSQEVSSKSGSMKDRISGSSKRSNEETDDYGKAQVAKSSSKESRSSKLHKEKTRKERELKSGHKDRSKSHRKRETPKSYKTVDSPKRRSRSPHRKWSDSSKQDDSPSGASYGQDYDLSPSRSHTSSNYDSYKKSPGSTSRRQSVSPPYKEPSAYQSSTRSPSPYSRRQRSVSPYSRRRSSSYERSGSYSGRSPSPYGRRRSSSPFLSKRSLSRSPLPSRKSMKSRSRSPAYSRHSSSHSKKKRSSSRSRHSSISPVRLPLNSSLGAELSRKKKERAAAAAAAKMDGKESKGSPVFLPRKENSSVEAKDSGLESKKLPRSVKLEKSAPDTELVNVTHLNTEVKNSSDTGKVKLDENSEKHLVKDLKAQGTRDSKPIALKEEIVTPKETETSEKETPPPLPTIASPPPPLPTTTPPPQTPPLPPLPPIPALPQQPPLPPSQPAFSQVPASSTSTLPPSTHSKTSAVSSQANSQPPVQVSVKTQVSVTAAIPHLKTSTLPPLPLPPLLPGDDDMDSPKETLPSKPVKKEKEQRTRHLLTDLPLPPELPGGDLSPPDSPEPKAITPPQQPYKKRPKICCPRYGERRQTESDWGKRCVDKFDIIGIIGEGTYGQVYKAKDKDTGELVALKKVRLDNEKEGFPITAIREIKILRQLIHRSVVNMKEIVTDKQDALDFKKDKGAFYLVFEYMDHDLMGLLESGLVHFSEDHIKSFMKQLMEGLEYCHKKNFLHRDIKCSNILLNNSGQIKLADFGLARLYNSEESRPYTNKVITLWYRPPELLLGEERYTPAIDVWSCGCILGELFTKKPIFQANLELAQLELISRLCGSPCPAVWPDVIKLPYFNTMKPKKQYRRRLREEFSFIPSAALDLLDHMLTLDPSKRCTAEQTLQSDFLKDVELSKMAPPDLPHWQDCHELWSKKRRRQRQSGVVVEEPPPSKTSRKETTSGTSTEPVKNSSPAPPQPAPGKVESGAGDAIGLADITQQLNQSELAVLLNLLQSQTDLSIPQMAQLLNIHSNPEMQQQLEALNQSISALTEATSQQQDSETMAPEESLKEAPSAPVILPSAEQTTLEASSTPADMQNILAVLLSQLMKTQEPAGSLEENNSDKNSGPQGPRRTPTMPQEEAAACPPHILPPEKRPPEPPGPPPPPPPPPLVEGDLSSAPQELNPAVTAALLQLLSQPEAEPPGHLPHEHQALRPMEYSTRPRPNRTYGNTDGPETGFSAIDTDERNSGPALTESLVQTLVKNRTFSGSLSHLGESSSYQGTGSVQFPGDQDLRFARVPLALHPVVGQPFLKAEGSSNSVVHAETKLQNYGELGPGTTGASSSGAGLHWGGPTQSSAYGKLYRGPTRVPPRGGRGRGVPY
# [20] = target: T5, Cyclin-dependent kinase 7 (Homo sapiens, UniProt P50613); experiment: Selectivity interaction (Western blot assay (pull-down blockage of CDK7-cyclin H using lysates from Jurkat cells)) EUB0001635a CDK7; type: subcellular, lysate
# T5 sequence (P50613 whole entry): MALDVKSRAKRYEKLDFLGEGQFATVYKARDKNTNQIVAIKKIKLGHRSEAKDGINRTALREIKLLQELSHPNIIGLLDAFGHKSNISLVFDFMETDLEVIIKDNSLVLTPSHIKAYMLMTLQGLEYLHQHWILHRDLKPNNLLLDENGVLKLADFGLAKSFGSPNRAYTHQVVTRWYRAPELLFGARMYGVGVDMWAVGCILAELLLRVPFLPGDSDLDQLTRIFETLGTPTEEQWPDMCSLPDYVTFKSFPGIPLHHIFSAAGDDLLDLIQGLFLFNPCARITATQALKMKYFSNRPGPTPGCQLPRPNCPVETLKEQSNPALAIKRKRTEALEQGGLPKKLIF
# [21] = target: T6, Cyclin-dependent kinase 13 (Homo sapiens, UniProt Q14004); experiment: Selectivity interaction (Western blot assay (pull-down blockage of CDK7-cyclin H using lysates from HAP1 cells)) EUB0001635a CDK13; type: cell-based
# T6 sequence (Q14004 whole entry): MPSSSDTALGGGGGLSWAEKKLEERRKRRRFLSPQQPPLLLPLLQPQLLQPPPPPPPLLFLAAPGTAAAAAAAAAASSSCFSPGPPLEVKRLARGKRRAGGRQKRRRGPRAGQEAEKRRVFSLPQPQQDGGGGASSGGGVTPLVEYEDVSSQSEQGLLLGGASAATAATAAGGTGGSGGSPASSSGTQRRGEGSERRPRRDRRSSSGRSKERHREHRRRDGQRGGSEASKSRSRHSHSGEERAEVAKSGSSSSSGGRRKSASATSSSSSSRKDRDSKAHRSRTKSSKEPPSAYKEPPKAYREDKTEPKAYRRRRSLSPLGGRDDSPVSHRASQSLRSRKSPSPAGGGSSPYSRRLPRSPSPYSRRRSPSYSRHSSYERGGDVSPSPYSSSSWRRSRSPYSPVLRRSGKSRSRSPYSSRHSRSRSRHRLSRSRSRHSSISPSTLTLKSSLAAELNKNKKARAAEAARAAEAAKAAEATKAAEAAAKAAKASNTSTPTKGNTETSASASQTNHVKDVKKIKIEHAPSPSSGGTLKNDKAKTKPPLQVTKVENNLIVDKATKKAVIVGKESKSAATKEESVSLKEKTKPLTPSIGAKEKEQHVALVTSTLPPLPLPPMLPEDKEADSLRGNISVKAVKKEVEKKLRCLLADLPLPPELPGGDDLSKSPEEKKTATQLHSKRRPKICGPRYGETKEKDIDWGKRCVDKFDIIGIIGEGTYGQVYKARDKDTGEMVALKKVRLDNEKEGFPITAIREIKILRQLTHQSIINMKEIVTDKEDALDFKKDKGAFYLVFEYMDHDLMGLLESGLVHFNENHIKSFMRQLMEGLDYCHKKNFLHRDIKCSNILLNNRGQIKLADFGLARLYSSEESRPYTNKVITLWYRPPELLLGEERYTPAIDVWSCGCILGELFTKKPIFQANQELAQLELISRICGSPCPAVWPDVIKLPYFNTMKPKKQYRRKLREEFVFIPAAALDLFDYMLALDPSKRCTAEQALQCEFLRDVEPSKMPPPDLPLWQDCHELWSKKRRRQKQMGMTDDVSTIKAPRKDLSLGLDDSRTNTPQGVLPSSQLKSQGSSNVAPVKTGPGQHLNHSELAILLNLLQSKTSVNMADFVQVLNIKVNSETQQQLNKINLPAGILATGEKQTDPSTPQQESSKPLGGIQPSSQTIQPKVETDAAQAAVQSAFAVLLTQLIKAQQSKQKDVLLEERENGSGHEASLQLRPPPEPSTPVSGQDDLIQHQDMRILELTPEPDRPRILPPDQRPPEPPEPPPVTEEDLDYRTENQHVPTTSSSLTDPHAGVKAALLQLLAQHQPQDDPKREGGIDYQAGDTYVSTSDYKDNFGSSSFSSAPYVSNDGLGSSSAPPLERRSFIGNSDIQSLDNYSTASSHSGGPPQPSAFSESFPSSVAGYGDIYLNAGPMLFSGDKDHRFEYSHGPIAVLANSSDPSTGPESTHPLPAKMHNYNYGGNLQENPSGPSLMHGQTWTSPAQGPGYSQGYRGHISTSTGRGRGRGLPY
# [22] = target: T5, Cyclin-dependent kinase 7; experiment: Selectivity interaction (Electrophoretic mobility shift assay) EUB0001635a CDK7
# [23] = target: T5, Cyclin-dependent kinase 7; experiment: Selectivity interaction (Western blot assay (pull-down blockage of CDK7-cyclin H using lysates from HAP1 cells)) EUB0001635a CDK7; type: cell-based
# [24] = target: T4, Cyclin-dependent kinase 12; experiment: Selectivity interaction (Western blot assay (pull-down blockage of CDK7-cyclin H using lysates from HAP1 cells)) EUB0001635a CDK12; type: cell-based
# [25] = target: Cyclin-dependent kinase 7 (Homo sapiens, UniProt P50613, C312S); experiment: Selectivity interaction (Radioactive kinase assays (from cellular C312S flag-tagged CDK7 immunoprecipitated in HeLa cells)) EUB0001635a CDK7; type: cell-based
# [26] = target: T6, Cyclin-dependent kinase 13; experiment: Selectivity interaction (Western blot assay (pull-down blockage of CDK7-cyclin H using lysates from Jurkat cells)) EUB0001635a CDK13; type: subcellular, lysate
# [27] = target: T4, Cyclin-dependent kinase 12; experiment: Selectivity interaction (Western blot assay (pull-down blockage of CDK7-cyclin H using lysates from Jurkat cells)) EUB0001635a CDK12; type: subcellular, lysate
# [28] = target: T6, Cyclin-dependent kinase 13; experiment: Selectivity interaction (Radioactive kinase activity assay) EUB0001635a CDK13
smiles,measurement,setting,value
Cc1n[nH]c2ncc(C(=O)N3CCC[C@H]3c3ccc(Cl)cc3)cc12,% of inhibition,[1],39%
same,IC50,[2],> 30000 nM
same,IC50,[3],4 nM
same,IC50,D(2) dopamine receptor [4],8500 nM
same,% of inhibition,[5],2%
same,% of inhibition,[6],-1%
same,% of inhibition,[7],7%
same,% of inhibition,D(2) dopamine receptor [8],54%
same,% of inhibition,[9],-7%
same,% of inhibition,[10],12%
same,IC50,[11],> 30000 nM
same,% of inhibition,[12],48%
same,IC50,[13],4 nM
same,% of inhibition,[14],18%
same,% of inhibition,[15],-1%
same,% of inhibition,[16],2%
same,% of inhibition,[17],13%
same,% of inhibition,[18],47%
C=CC(=O)Nc1ccc(C(=O)Nc2n[nH]c3c2CN(C(=O)N[C@H](CN(C)C)c2ccccc2)C3(C)C)cc1,IC50,[19],> 10000 nM
same,IC50,[20],> 30000 nM
same,IC50,[21],> 1000 nM
same,Ki,[22],1.9 nM
same,IC50,[23],> 30000 nM
same,IC50,[24],> 1000 nM
same,IC50,[25],> 10000 nM
same,IC50,[26],> 1000 nM
same,IC50,[27],> 1000 nM
same,IC50,[28],> 10000 nM
